Here are results for one compound from US20240122909A1, “TREATMENTS OF HEREDITARY ANGIOEDEMA” (KALVISTA PHARMACEUTICALS LIMITED, priority 2021, published 2024).

Each structure is given as a SMILES string.

The nature of data set [1]: Phase 1 single ascending dose study, safety and tolerability. In kind it is in vivo, human. The settings on record: phase I trial, healthy males. An excerpt:
(§1) This study was a randomized, double-blind, placebo-controlled single ascending dose (SAD) and crossover studies for food effect and capsule/tablet formulations.

The target of a further data set is PKa (Homo sapiens, UniProt P03952). Nature of the data set: Protection of HK from PKa-mediated cleavage in DXS-stimulated HAE and control plasma. Particulars: HAE and healthy control plasma stimulated with dextran sulfate, WES. In kind it is biochemical. As for the experimental part: High molecular weight kininogen (HK) cleavage in undiluted citrated human plasma was induced by contact system activation with dextran sulfate (DXS, Sigma #31395-10G; 6.25 μg/ml) on wet ice. […] HAE plasma was obtained from HAE subjects (n=6) and C1-inhibitor deficiency was confirmed by western blotting. Protection of HK from PKa mediated cleavage in DXS-stimulated whole undiluted plasma was then determined by two methods; traditional western blotting and a semi-automated capillary-based immunoassay.
Western blotting: SDS-PAGE gel electrophoresis was done using 7.5% Criterion TGX Precast gels (Bio-rad). Transfer was made onto Immobilon-FL PVDF membrane. Image analysis was performed using the LICOR imaging system. Mouse monoclonal anti-human HK antibody (MAB15692, R&D systems) was used for traditional immunoblotting.
Capillary-Based Immunoassay on the WES System (ProteinSimple):
Preparation of samples: Combine one part 5× fluorescent master mix with four parts of the 1:200 plasma sample. Vortex to mix. Heat the samples+fluorescent master mix and the biotinylated ladder at 95° C. for 5 minutes, vortex, and load onto the WES plate. […] The peak area is defined as the area calculated for the spectral peak profile for HK. To measure the plasma kallikrein inhibition by the compound, the percent full-length HK detected was calculated.

The target in a further data set is plasma kallikrein (Homo sapiens, UniProt P03952). Description: Phase 1 study, ex vivo PKa catalytic activity in DXS-stimulated undiluted plasma. Also noted: samples from a Phase 1 Single Ascending Dose Study in healthy adult males; from tissue; host or cells: undiluted plasma of healthy adult male volunteers after oral dosing. Particulars: 600 mg tablet. As for the experimental part:
PD measurements were determined in dextran sulfate (DXS) stimulated undiluted plasma using a fluorogenic enzyme assay and capillary based HK cleavage immunoassay.
The time until appearance of detectable amidolytic enzyme activity in DXS-stimulated plasma (lag time) was calculated from the catalytic activity assay. The detection sensitivity of the rate of catalytic activity in plasma based on using a Spark (Tecan) fluorimeter is a fluorescence increase to reach 1ΔF unit/sec.

The test system of a further data set is HK. Nature of the data set: Phase 1 study, ex vivo DXS-stimulated cleavage of HK (Wes capillary immunoassay). Particulars: 600 mg capsules, up to 12 hrs post-dose. In kind it is in vivo, human. The procedure:
DXS-stimulated cleavage of HK, in undiluted plasma was quantified by capillary-based immunoassay on the Wes System (ProteinSimple) using monoclonal anti-HK antibody and chemiluminescence-based detection. Plasma kallikrein mediated HK cleavage in undiluted citrated human plasma was induced by contact system activation with DXS (6.25 μg/ml) at 4° C. in selected samples from the SAD phase.

A further data set has as its system Factor XII (FXII). Nature of the data set: Phase 1 study, ex vivo DXS-stimulated cleavage of Factor XII (Wes). The data set is classed as in vivo, human. The settings on record: 600 mg capsules, up to 12 hrs post-dose. An excerpt:
(§2) DXS-stimulated cleavage of plasma prekallikrein and Factor XII (FXII) were quantified by capillary-based immunoassay on the Wes System (ProteinSimple) analogously.

A further data set deals with plasma prekallikrein. Nature of the data set: Phase 1 study, ex vivo DXS-stimulated cleavage of plasma prekallikrein (Wes). In kind it is in vivo, human. Particulars: 600 mg capsules, up to 12 hrs post-dose.
Excerpt: as §2

The nature of data set [2]: Phase 1 single ascending dose study, plasma pharmacokinetics. In kind it is in vivo, human. The settings on record: oral capsule 5 mg to 600 mg, fasted healthy males. As for the experimental part: as §1
Samples for pharmacokinetic (PK) and PD assessment were taken at repeated intervals over 48 hours.
Plasma samples used for PK assessment were analysed using a validated liquid chromatography tandem mass spectrometry (LC MS/MS) method.

Sequence of plasma kallikrein (P03952 391-638 limits assumed): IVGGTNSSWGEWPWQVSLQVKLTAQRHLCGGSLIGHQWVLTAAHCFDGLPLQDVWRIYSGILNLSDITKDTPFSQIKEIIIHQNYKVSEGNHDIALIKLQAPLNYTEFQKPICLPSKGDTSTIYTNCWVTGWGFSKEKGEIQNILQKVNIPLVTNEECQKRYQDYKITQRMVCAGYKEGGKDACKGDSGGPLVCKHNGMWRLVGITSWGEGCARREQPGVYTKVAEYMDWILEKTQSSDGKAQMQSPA
Sequence of plasma kallikrein (P03952 20-390 partner limits assumed): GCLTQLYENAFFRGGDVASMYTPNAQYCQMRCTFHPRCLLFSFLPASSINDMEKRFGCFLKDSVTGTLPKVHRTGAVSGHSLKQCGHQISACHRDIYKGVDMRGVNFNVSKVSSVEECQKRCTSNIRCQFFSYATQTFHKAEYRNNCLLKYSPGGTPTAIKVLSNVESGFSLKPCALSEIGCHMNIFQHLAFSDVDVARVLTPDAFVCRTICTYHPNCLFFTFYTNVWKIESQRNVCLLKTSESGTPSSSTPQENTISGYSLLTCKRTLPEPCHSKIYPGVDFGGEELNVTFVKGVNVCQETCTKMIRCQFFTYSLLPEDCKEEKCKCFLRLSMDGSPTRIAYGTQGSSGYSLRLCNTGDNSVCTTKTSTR
Sequence of PKa (P03952 391-638 limits assumed): as the sequence (P03952 391-638 limits assumed) above
Sequence of PKa (P03952 20-390 partner limits assumed): as the sequence (P03952 20-390 partner limits assumed) above

Turning to `COCc1nn(Cc2ccc(Cn3ccccc3=O)cc2)cc1C(=O)NCc1nccc(OC)c1F` [compound of Formula A, N-[(3-fluoro-4-methoxypyridin-2-yl)methyl]-3-(methoxymethyl)-1-({4-[(2-oxopyridin-1-yl)methyl]phenyl}methyl)pyrazole-4-carboxamide], the tolerability entry in data set [1] was “no tolerability signals”. On PKa, the “protection against HK cleavage” value was “dose dependent protection against HK cleavage”. The “lag time until appearance of catalytic activity during contact system activation” value at plasma kallikrein was “increases the time until appearance of catalytic activity”. Further, on plasma kallikrein (fed vs fasted), the “food effect on pharmacodynamic profile” value is recorded as “no significant food-effect”. The “effect on HK cleavage” value with HK was “reduces HK cleavage”. Also, the “effect on generation of FXIIa” value in the data set on Factor XII (FXII) is “reduces the generation of FXIIa”. Also, the “effect on PPK cleavage” value in the data set with plasma prekallikrein is recorded as “reduces PPK cleavage”. For the same compound, in data set [2], the plasma exposure entry is “rapid and dose-dependent plasma exposure”.
